Experimental data taken from ChEMBL document CHEMBL4825766, “Structure Activity Relationships for a Series of Eticlopride-Based Dopamine D2/D3 Receptor Bitopic Ligands” (J Med Chem, 2021).

Tests used:
D(3) dopamine receptor = D(3) dopamine receptor (Homo sapiens, UniProt P35462)
D(2) dopamine receptor = D(2) dopamine receptor (Homo sapiens, UniProt P14416)
Chain of D(2) dopamine receptor (P14416 whole entry): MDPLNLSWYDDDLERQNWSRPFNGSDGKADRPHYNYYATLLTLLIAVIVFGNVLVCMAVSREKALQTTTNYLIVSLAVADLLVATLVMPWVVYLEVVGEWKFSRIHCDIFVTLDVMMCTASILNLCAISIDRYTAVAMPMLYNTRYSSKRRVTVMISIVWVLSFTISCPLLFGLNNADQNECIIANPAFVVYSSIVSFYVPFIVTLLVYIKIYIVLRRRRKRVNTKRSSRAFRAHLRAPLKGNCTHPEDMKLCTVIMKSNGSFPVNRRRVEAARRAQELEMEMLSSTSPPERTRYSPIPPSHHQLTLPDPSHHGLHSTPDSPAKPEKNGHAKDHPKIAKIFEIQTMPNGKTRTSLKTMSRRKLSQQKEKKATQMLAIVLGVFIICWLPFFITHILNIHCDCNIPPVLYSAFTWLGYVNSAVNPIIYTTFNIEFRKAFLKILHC

Chain of D(3) dopamine receptor (P35462 whole entry): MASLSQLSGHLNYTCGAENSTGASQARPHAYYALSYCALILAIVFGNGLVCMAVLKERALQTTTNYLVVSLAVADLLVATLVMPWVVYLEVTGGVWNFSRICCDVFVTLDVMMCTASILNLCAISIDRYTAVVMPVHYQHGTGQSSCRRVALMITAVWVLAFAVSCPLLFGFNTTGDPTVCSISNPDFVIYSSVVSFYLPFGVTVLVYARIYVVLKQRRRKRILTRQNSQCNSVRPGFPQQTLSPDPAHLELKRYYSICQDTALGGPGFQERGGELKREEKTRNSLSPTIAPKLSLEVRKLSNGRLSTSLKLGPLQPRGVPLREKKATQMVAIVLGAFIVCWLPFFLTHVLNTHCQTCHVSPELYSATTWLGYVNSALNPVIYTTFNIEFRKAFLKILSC

Ki (D(3) dopamine receptor)	Ki (D(2) dopamine receptor)	Structure (SMILES)
15.4 nM	27.6 nM	CCc1cc(Cl)c(OC)c(C(=O)NC[C@@H]2CCCN2CCCCNC(=O)c2cc3ccccc3o2)c1O
1.01 nM	7.24 nM	CCc1cc(Cl)c(OC)c(C(=O)NC[C@@H]2C[C@@H](OCCCCOCc3ccccc3)CN2)c1O
0.815 nM	1.9 nM	CCc1cc(Cl)c(OC)c(C(=O)NC[C@@H]2C[C@@H](OCCCCO)CN2)c1O
61.1 nM	173 nM	CCc1cc(Cl)c(OC)c(C(=O)NC[C@@H]2CCCN2CCCCNC(=O)c2cc3ccccc3[nH]2)c1O
0.436 nM	1.77 nM	CCc1cc(Cl)c(OC)c(C(=O)NC[C@@H]2C[C@@H](OCCCCOc3ccc4c(c3)NC(=O)CC4)CN2)c1O
28.7 nM	205 nM	CCc1cc(Cl)c(OC)c(C(=O)NC[C@@H]2CCCN2Cc2ccccc2)c1O
426 nM	2590 nM	CCc1cc(Cl)c(OC)c(C(=O)NC[C@@H]2CCCN2Cc2ccccc2)c1OCc1ccccc1
–	0.117 nM	CCc1cc(Cl)c(OC)c(C(=O)NC[C@@H]2CCCN2CC)c1O [ETICLOPRIDE]
19.2 nM	38.2 nM	CCc1cc(Cl)c(OC)c(C(=O)NCC2CCN(CC)C2)c1O (centres undefined)
50.3 nM	74.4 nM	CCc1cc(Cl)c(OC)c(C(=O)NC[C@@H]2CCCN2CCc2c(C)nc3n(c2=O)CCCC3)c1O
0.281 nM	0.688 nM	CCCN1CCC[C@H]1CNC(=O)c1c(O)c(CC)cc(Cl)c1OC
0.444 nM	2.57 nM	CCCN1C[C@H](OCCCCOc2ccc3c(c2)NC(=O)CC3)C[C@H]1CNC(=O)c1c(O)c(CC)cc(Cl)c1OC
20.4 nM	162 nM	CCc1cc(Cl)c(OC)c(C(=O)NC[C@@H]2CCCN2CCCc2ccccc2)c1O
6.97 nM	25.3 nM	CCc1cc(Cl)c(OC)c(C(=O)NC[C@@H]2CCCN2CCCCOc2ccc3c(c2)NC(=O)CC3)c1O
0.797 nM	2.54 nM	CCc1cc(Cl)c(OC)c(C(=O)NC[C@@H]2C[C@@H](OCCCCNC(=O)c3cc4ccccc4[nH]3)CN2)c1O
0.493 nM	2.29 nM	CCc1cc(Cl)c(OC)c(C(=O)NC[C@@H]2C[C@@H](OCCCCNC(=O)c3cc4ccccc4o3)CN2)c1O
100 nM	217 nM	CCc1cc(Cl)c(OC)c(C(=O)NCC2CCN(C)C2)c1O (centres undefined)
14.3 nM	66.4 nM	CCCN1CCC(CNC(=O)c2c(O)c(CC)cc(Cl)c2OC)C1 (centres undefined)
2.63 nM	7.42 nM	CCc1cc(Cl)c(OC)c(C(=O)NC[C@@H]2C[C@@H](OCCCc3ccccc3)CN2)c1O
0.431 nM	2.26 nM	CCc1cc(Cl)c(OC)c(C(=O)NC[C@@H]2CCCN2)c1O
